Laboratory results: ChEMBL document CHEMBL3600293, “Design, synthesis and evaluation of MCH receptor 1 antagonists--Part I: Optimization of HTS hits towards an in vivo efficacious tool compound BI 414” (Bioorg Med Chem Lett, 2015)

Tests used:
in vitro [1] = conditions: human, liver microsomes
Description: Half life in human liver microsomes

in vitro [2] = conditions: rat, liver microsomes
Description: Half life in rat liver microsomes

Q: For `NC(=O)C1CCN(CCOc2ccc(C#Cc3ccc(-c4ccc(Cl)cc4)cn3)cc2)CC1`, which half-life (in vitro [1]) is on record?
A: > 90 min

Q: And the half-life (in vitro [2])?
A: 21 min
